The values below come from patent US20240294551A1 (AMGEN INC., priority 2022, published 2024).

Assay [1] has as its target GDP-bound KRAS protein (aa 1-169), containing both G12D and C118A amino acid substitutions (Homo sapiens (Human), UniProt P01116, C118A/G12D). Put plainly: KRAS G12D Coupled Nucleotide Exchange Assay. Type of assay: biochemical. The note with it: read-out: KRAS G12D Coupled Exchange IC50.
Assay [2] has as its system SW620 cells. Put plainly: SW620 CTG Assay (CellTiter-Glo cell viability). Type of assay: cell-based, human. The note with it: Homo sapiens, SW-620; SW620, 72 h; third value of the cell; read-out: G12D/C/V Cell Proliferation CTG (72 h) SW620. The protocol:
AsPC-1 and SW620 CTG Assay Protocols
AsPC-1 (human pancreatic adenocarcinoma; ATCC CRL-1682) or SW620 (human colon adenocarcinoma; ATCC CCL-227) cells were cultured in RPMI 1640 medium containing 10% fetal bovine serum and 1× penicillin/streptomycin/L-glutamine. Cells were seeded in 384-well plates at a density of 3.33E+04 cells/mL and incubated at 37° C., 5% CO2, overnight. Serially-diluted compound or DMSO was added to the cells, and plates were incubated at 37° C., 5% CO2 for 72 h. Cell viability was measured using a CellTiter-Glo® Luminescent Cell Viability Assay kit (Promega) according to the manufacturer's protocol. The luminescence signal of treated samples was normalized to DMSO control, and data were analyzed using a 4-parameter logistic model to calculate IC50 values.

Assay [3] addresses His-tagged KRAS G12D protein (Homo sapiens (Human), UniProt P01116, G12D). Put plainly: KRAS G12D TR-FRET Assay. The note with it: read-out: KRAS G12D Binding IC50. Type of assay: binding. The method in brief:
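Each incubation ran at room temperature: enzyme with compound for 30 minutes, peptide for one hour, and detection reagents (0.4 nM europium anti-6×His, 5 nM streptavidin-d2) for one hour more. Protein and peptide stocks were each diluted to 20 nM before addition.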
(In general: In TR-FRET formats the signal depends on donor and acceptor labels being close together.)

Assay [4] concerns AsPC-1 cells. Put plainly: AsPC-1 CTG Assay (CellTiter-Glo cell viability). Type of assay: cell-based, human. The note with it: Homo sapiens, ASPC1, 72 h, AsPC-1, 72 h; first value of the cell; read-out: G12D/C/V Cell Proliferation CTG (72 h) AsPC-1. Summed up:
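IC50 values derive from 4-parameter logistic fits of CellTiter-Glo luminescence, expressed relative to DMSO. Compound dilution series were applied to overnight-seeded AsPC-1 or SW620 cells (RPMI 1640, 10% FBS) for 72 h at 37 °C, 5% CO2.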
On the technique in general: ATP-based viability assays read luminescence as a measure of living cells.

Assay [5] has as its system Phosphorylation of ERK1/2 in AsPC-1 cells. The assay is described as follows: Phospho-ERK1/2 MSD Assay. Conditions: Homo sapiens, ASPC1, 2 h, read-out: 2 h p-ERK (AsPC-1 cells), IC50. Type of assay: cell-based, human. The method in brief: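 Read-out: MSD electrochemiluminescent detection of phosphorylated ERK1/2 in whole-cell lysates, fitted to a 4-parameter logistic curve for IC50. Prior to lysis, AsPC-1 cells (25,000 per well) received a 2 h compound dose-response at 37 °C.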

Molecules are shown by their SMILES.

GDP-bound KRAS protein (aa 1-169), containing both G12D and C118A amino acid substitutions, sequence (P01116 other isoform, or with tags, fused parts or gaps G12D/C118A): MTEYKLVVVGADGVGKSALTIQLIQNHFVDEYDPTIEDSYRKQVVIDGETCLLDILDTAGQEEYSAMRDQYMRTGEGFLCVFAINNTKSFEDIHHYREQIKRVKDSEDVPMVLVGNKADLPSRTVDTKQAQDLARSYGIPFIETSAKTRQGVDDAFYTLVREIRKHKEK
His-tagged KRAS G12D protein, sequence (P01116 other isoform, or with tags, fused parts or gaps G12D): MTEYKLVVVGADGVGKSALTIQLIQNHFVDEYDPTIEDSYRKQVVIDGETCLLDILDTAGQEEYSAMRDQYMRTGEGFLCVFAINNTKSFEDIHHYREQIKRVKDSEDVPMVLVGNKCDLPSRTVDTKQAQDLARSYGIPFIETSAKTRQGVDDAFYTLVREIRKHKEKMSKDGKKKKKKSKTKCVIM

With `C[C@@]12CCCN(C1)c1nc(OC[C@@]34CCCN3C[C@H](F)C4)nc3c(F)c(ncc13)-c1cccc3ccc(F)c(c13)CC[C@H](F)C(=O)N2` [Example 12, (15R,18S)-18,22,31-trifluoro-8-(((2R,7aS)-2-fluorotetrahydro-1H-pyrrolo[1,2-a]pyrrol-7a(5H)-yl)methoxy)-15-methyl-3,7,9,11,16-pentaazahexacyclo[19.7.1.1˜2,6˜.1˜11,15˜.0˜5,10˜.0˜25,29˜]hentriaconta-1(28),2(31),3,5,7,9,21,23,25(29),26-decaen-17-one], the IC50 was found to be 0.003 µM in assay [1]; 0.427 µM in assay [2]; 0.006 µM in assay [3]; 0.49 µM in assay [4]; 0.052 µM in assay [5].
For `Cc1cc2[nH]ncc2c2c1CCCOC(=O)O[C@@H]1CCCN(C1)c1nc(OC[C@@]34CCCN3C[C@H](F)C4)nc3c(F)c-2ncc13` [Example 38, (17R)-30-Fluoro-24-(((2R,7aS)-2-fluorotetrahydro-1H-pyrrolo[1,2-a]pyrrol-7a(5H)-yl)methoxy)-9-methyl-14,16-dioxa-5,6,21,23,25,29-hexaazahexacyclo[24.3.1.1˜17,21˜.0˜2,10˜.0˜3,7˜.0˜22,27˜]hentriaconta-1(30),2,4,7,9,22,24,26,28-nonaen-15-one bis(2,2,2-trifluoroacetate)] the same measures were 0.002 µM, 0.076 µM, 0.002 µM, 0.443 µM and 0.02 µM.
For `CN1C(=O)CCCCc2c(Cl)cc3[nH]ncc3c2-c2ncc3c(nc(OC[C@@]45CCCN4C[C@H](F)C5)nc3c2F)N2CCC[C@@H]1C2` [Example 53, (17R)-9-chloro-30-fluoro-24-(((2R,7aS)-2-fluorotetrahydro-1H-pyrrolo[1,2-a]pyrrol-7a(5H)-yl)methoxy)-16-methyl-5,6,16,21,23,25,29-heptaazahexacyclo[24.3.1.1~17,21~.0~2,10~.0~3,7~.0~22,27~]hentriaconta-1(30),2,4,7,9,22,24,26,28-nonaen-15-one] the same measures were 0.004 µM, 0.15 µM, 0.008 µM, 0.48 µM and 0.074 µM.
For `O=C1CCCCc2c(Cl)cc3[nH]ncc3c2-c2ncc3c(nc(OC[C@@]45CCCN4C[C@H](F)C5)nc3c2F)N2CC[C@H]3CCN1[C@H]3C2` [Example 62, (28S,32R)-18-chloro-33-fluoro-4-(((2R,7aS)-2-fluorotetrahydro-1H-pyrrolo[1,2-a]pyrrol-7a(5H)-yl)methoxy)-1,3,5,9,14,15,25-heptaazaheptacyclo[23.5.2.1~6,10~.0~2,7~.0~11,19~.0~12,16~.0~28,32~]tritriaconta-2,4,6,8,10(33),11,13,16,18-nonaen-24-one] the same measures were 0.002 µM, 0.01 µM, 0.003 µM, 0.07 µM and 0.004 µM.
As to `O=C1OCCCc2c(Cl)cc3[nH]ncc3c2-c2ncc3c(nc(OC[C@@]45CCCN4C[C@H](F)C5)nc3c2F)N2CCCC[C@H](C2)O1` [Example 100, (26R)-18-chloro-32-fluoro-4-(((2R,7aS)-2-fluorotetrahydro-1H-pyrrolo[1,2-a]pyrrol-7a(5H)-yl)methoxy)-23,25-dioxa-1,3,5,9,14,15-hexaazahexacyclo[24.4.1.1~6,10~.0~2,7~.0~11,19~.0~12,16~]dotriaconta-2,4,6,8,10(32),11,13,16,18-nonaen-24-one], the IC50 in assay [1] came out at 0.001 µM; in assay [2] it was 0.01 µM; in assay [3], 0.002 µM; in assay [4], 0.06 µM; in assay [5] it was 0.004 µM.
As for `O=C1OCCCc2c(F)cc3[nH]ncc3c2-c2ncc3c(nc(OC[C@@]45CCCN4C[C@H](F)C5)nc3c2F)N2CCC[C@H](C2)O1` [Example 112], the IC50 in assay [1] was 0.003 µM; in assay [2], 0.137 µM; in assay [3] it was 0.005 µM; in assay [4], 0.36 µM; in assay [5], 0.048 µM.
For `Fc1c2ncc3c(nc(OC[C@@]45CCCN4C[C@H](F)C5)nc13)N1CCCC(C1)c1cnn(n1)CCCc1c(Cl)cc3[nH]ncc3c1-2` (some centres unmarked) [Example 148] the same measures were 0.005 µM, 0.165 µM, 0.007 µM, 0.46 µM and 0.042 µM.
For the molecule `Fc1c2ncc3c(nc(OC[C@@]45CCCN4C[C@H](F)C5)nc13)N1CCCC(C1)c1cnn(n1)C/C=C/c1c(Cl)cc3[nH]ncc3c1-2` (some centres unmarked) [Example 149], the IC50 worked out at 0.034 µM in assay [1]; 0.154 µM in assay [2]; 0.06 µM in assay [3]; 0.47 µM in assay [4]; 0.033 µM in assay [5].
With `Cc1cc2[nH]ncc2c2c1[C@H]1C[C@H]1COCC[C@@H]1CCCN(C1)c1nc(OC[C@@]34CCCN3C[C@H](F)C4)nc3c(F)c-2ncc13` [Example 153, (11S,13R,18S)-31-fluoro-25-(((2R,7aS)-2-fluorotetrahydro-1H-pyrrolo[1,2-a]pyrrol-7a(5H)-yl)methoxy)-9-methyl-15-oxa-5,6,22,24,26,30-hexaazaheptacyclo[25.3.1.1~18,22~.0~2,10~.0~3,7~.0~11,13~.0~23,28~]dotriaconta-1(31),2,4,7,9,23,25,27,29-nonaene], the IC50 in assay [1] came to 0.003 µM; in assay [2], 0.0325 µM; in assay [3] it was 0.003 µM; in assay [4] it was 0.21 µM; in assay [5] it was 0.009 µM.
In the case of `Fc1c2ncc3c(nc(OC[C@@]45CCCN4C[C@H](F)C5)nc13)N1CCC[C@H](C1)Cn1ncc(n1)/C=C\c1c(Cl)cc3[nH]ncc3c1-2` [Example 155, (11Z,18R)-9-chloro-31-fluoro-25-(((2R,7aS)-2-fluorotetrahydro-1H-pyrrolo[1,2-a]pyrrol-7a(5H)-yl)methoxy)-5,6,15,16,22,24,26,30,33-nonaazaheptacyclo[25.3.1.1~13,16~.1~18,22~.0~2,10~.0~3,7~.0~23,28~]tritriaconta-1(31),2,4,7,9,11,13(33),14,23,25,27,29-dodecaen], the IC50 in assay [1] worked out at 0.005 µM; in assay [2] it was 0.302 µM; in assay [3] it was 0.006 µM; in assay [4] it was 0.72 µM; in assay [5], 0.052 µM.
In the case of `Fc1c2ncc3c(nc(OC[C@@]45CCCN4C[C@H](F)C5)nc13)N1CCC[C@H](C1)Cn1ncc(n1)CCc1c(Cl)cc3[nH]ncc3c1-2` [Example 156, (18R)-9-chloro-31-fluoro-25-(((2R,7aS)-2-fluorotetrahydro-1H-pyrrolo[1,2-a]pyrrol-7a(5H)-yl)methoxy)-5,6,15,16,22,24,26,30,33-nonaazaheptacyclo[25.3.1.1~13,16~.1~18,22~.0~2,10~.0~3,7~.0~23,28~]tritriaconta-1(31),2,4,7,9,13(33),14,23,25,27,29-undecaene], the IC50 worked out at 0.003 µM in assay [1]; 0.367 µM in assay [2]; 0.012 µM in assay [3]; 0.72 µM in assay [4]; 0.11 µM in assay [5].
For `Fc1c2ncc3c(nc(OC[C@@]45CCCN4C[C@H](F)C5)nc13)N1CCOC[C@H](C1)OC(=S)OCCCc1c(Cl)cc3[nH]ncc3c1-2` [Example 199, (26S)-18-chloro-32-fluoro-4-(((2R,7aS)-2-fluorotetrahydro-1H-pyrrolo[1,2-a]pyrrol-7a(5H)-yl)methoxy)-23,25,28-trioxa-1,3,5,9,14,15-hexaazahexacyclo[24.4.1.1~6,10~.0~2,7~.0~11,19~.0~12,16~]dotriaconta-2,4,6,8,10(32),11,13,16,18-nonaene-24-thione], the IC50 in assay [1] worked out at 0.003 µM; in assay [2], 0.022 µM; in assay [3], 0.004 µM; in assay [4], 0.046 µM; in assay [5], 0.0157 µM.
On to `CN1CCC[C@H]1COc1nc2c3cnc(c(F)c3n1)-c1c(c(Cl)cc3[nH]ncc13)CCCOC(=O)O[C@@H]1COCCN2C1` [Example 207, (26S)-18-chloro-32-fluoro-4-(((2S)-1-methyl-2-pyrrolidinyl)methoxy)-23,25,28-trioxa-1,3,5,9,14,15-hexaazahexacyclo[24.4.1.1~6,10~.0~2,7~.0~11,19~.0~12,16~]dotriaconta-2,4,6,8,10(32),11,13,16,18-nonaen-24-one], for which the IC50 in assay [1] came to 0.002 µM; in assay [2] it was 0.058 µM; in assay [3], 0.004 µM; in assay [4], 0.196 µM; in assay [5], 0.0147 µM.
